Measured values taken from US12390537B2, “Compositions of polymeric microdevices and methods of use thereof in cancer immunotherapy” (Massachusetts Institute of Technology, priority 2020, dated 2025).

Key:
[1] = test system: immune cells in TME of B16F10 melanoma tumors; assay: Flow cytometry of immune cells in B16F10 TME; type: in vivo, mice
Experimental: Mice bearing B16F10 tumors were treated with the following 4 experimental groups (n=8): untreated, 1×EPs, 3×cGAMP-S, and 1×cGAMP-S plus cGAMP-MPs, respectively (FIG. 4A). Tumors were collected at day 16 post tumor inoculation and cut into 50-100 mg small pieces in a 1.5 mL microcentrifuge tube. The tumors were lysed in radioimmunoprecipitation assay (RIPA) buffer (Sigma-Aldrich), homogenized, and centrifuged at 20130 rcf for 10 min. The protein content in the supernatant was quantified using a bicinchoninic acid protein assay kit (Thermo Fisher Scientific, MA, USA). Equal amounts of proteins (20 μg) were separated on a 4 to 15% gradient SDS-polyacrylamide gel (Bio-Rad, Hercules, CA) and electro-transferred to nitrocellulose membrane. The membranes were then blocked with 5% milk in tris-buffered saline supplemented with 0.05% Tween 20 and further incubated with GAPDH monoclonal antibody (Invitrogen, CA, cat. no. MA5-27912), phospho-TBK1/NAK (Ser172) (D52C2) Rabbit mAb (Cell Signaling Technology, cat. no. 5483S), or phospho-IRF-3 (S396) Rabbit mAb (Cell Signaling Technology, cat. no. 4947S) at 4° C. overnight. The membranes were then incubated with goat anti-rabbit IgG (H+L) Secondary Antibody, HRP (Invitrogen, cat. no. TG266717) for 1 h at room temperature. Protein bands were visualized by chemiluminescence using the ECL Western Blotting Substrate (Thermo Fisher Scientific, MA).
To stain the intracellular marker, e.g., IFN-γ, cells were pre-stimulated with cell stimulation cocktail (eBioscience, cat. no. 00-4970-93) for 4-6 h, fixed and permeabilized using fixation/permeabilization solution kit (BD, cat. no. 554714), and then stained with both anti-IFN-γ and other surface antibodies. Antibodies used for flow cytometry studies were anti-CD86-BUV395 (BD, cat. no. 564199), anti-CD45-BUV737 (BD, cat. no. 564880), anti-TCRβ-BV421 (Biolegend, cat. no. 109229), anti-NK1.1-BV605 (Biolegend, cat. no. 108739), anti-NK1.1-BV605 (Biolegend, cat. no. 108739), anti-CD8a-FITC (BD, cat. no. 553030), anti-CD4-PerCP/Cy5.5 (BD, cat. no. 550954), anti-CD62L-PE (Biolegend, cat. no. 104407), anti-CD19-PE/Cy7 (eBioscience, cat. no. 25-0193-81), anti-CD3-PE/594 (Biolegend, cat. no. 100245), anti-FOXP3-APC (eBioscience, cat. no. 17-5773-80), anti-CD11b-AF700 (Biolegend, cat. no. 201222), anti-CD8a-BV421 (Biolegend, cat. no. 100737), anti-Ly6g-BV510 (Biolegend, cat. no. 127633), anti-Siglec F-BV605 (BD, cat. no. 740388), anti-MHC II-BV786 (BD, cat. no. 743875), anti-Ly6c-AF488 (Biolegend, cat. no. 128021), anti-CD11c-PerCP/Cy5.5 (Biolegend, cat. no. 117327), anti-CD206-PE (Biolegend, cat. no. 141705), anti-CD197-PE/594 (Biolegend, cat. no. 120121), anti-F4/80-PE/Cy7 (Biolegend, cat. no. 123113), anti-CD200R3-APC (Biolegend, cat. no. 142207), anti-CD11b-AF700 (Biolegend, cat. no. 101222), and viability dye eFluor 780 (eBiosciecne, cat. no. 65-0865-14). Flow cytometry data were acquired on an LSRFortessa cell analyzer (BD) and analyzed using FlowJo software.

[2] = test system: IFNγ+CD8+ T cells; assay: Flow cytometry of IFNγ+CD8+ T cells in serum, B16F10 model; type: in vivo, mice
Experimental: To stain the intracellular marker, e.g., IFN-γ, cells were pre-stimulated with cell stimulation cocktail (eBioscience, cat. no. 00-4970-93) for 4-6 h, fixed and permeabilized using fixation/permeabilization solution kit (BD, cat. no. 554714), and then stained with both anti-IFN-γ and other surface antibodies. […] Flow cytometry data were acquired on an LSRFortessa cell analyzer (BD) and analyzed using FlowJo software.
To study whether activation of STING in the TME triggers systemic antitumor immunity, mouse serum was collected from the antitumor efficacy study of B16F10 melanoma model (FIG. 3D) 21 and 28 days after tumor inoculation and analyzed by flow cytometry. cGAMP-MPs and 4×cGAMP-S treatments increased 5.1- and 4.9-fold of IFNγ+CD8+ T cells in serum at day 21 compared to the untreated group (FIG. 5A). […]

[3] = test system: apoptotic cells in B16F10 tumors; assay: TUNEL staining of tumor sections; type: in vivo, mice; conditions: cGAMP-MPs single injection, cGAMP-S three injections
Experimental: Tumor sections (5 μm) were fixed with 4% paraformaldehyde, blocked with 3% bovine serum albumin, and permeabilized with 0.1% Triton X-100 in PBS. The tumor sections were then incubated with anti-CD8 alpha antibody (1:200, Abcam, cat. no. ab217344) at 4° C. overnight and goat anti-rabbit IgG H&L (Alexa Fluor® 488) (1:1000, Abcam, cat. no. ab150077) secondary antibody at room temperature for 1 h. Apoptotic tumor cells were stained using a in situ cell death detection kit (Roche) according to the manufacturer's instructions. Images were acquired on a Nikon A1R Ultra-Fast Spectral Scanning Confocal Microscope (Shinagawa, Tokyo).

[4] = test system: interleukin-6 (IL-6); assay: Systemic IL-6 response of orthotopic 4T1 tumor-bearing mice; type: in vivo; conditions: day 1 to 7; cGAMP-MPs single injection, cGAMP-S four injections
[5] = day 16, cGAMP-MPs single injection, cGAMP-S three injections

Nc1nc2c(ncn2[C@@H]2O[C@@H]3COP(=O)(O)O[C@H]4[C@@H](O)[C@H](n5cnc6c(N)ncnc65)O[C@@H]4COP(=O)(O)O[C@H]3[C@H]2O)c(=O)[nH]1 [cGAMP-S, 3′3′-cGAMP]
polarization of macrophages within the TME ([1]; 3 doses of soluble cGAMP or 1 dose of cGAMP-MPs): repolarization of M2-like macrophages in the tumor to M1-like phenotype
increase of CD8+/CD4+ T cell ratio [1, 5]: 1.2 fold
increase of TILs compared to untreated [1, 5]: approximately 23.5 fold
increase of surface expression of CD86 on tumor infiltrating DCs [1, 5]: 1.7 fold
increase of tumor-infiltrating CD4+ T cells [1, 5]: 23.6 fold
increase of tumor-infiltrating CD8+ T cells [1, 5]: 24.4 fold
infiltrating natural killer (NK) cells [1, 5]: increased
influx of DCs, basophils, monocytes and macrophages [1, 5]: promoted the influx
increase of IFNγ+CD8+ T cells in serum compared to untreated ([2]; day 21, cGAMP-MPs single injection, cGAMP-S four injections): 4.9 fold
number of IFNγ+CD8+ T cells in serum ([2]; day 28 versus day 21): remained at an identical level
apoptotic cells (TUNEL) [3]: greater abundance of apoptotic cells
systemic IL-6 levels [4]: elevated
